Measured values from patent publication EP3275434A1, “AN EXTENDED RELEASE ORAL DOSAGE FORM” (SANDOZ AG, priority 2016, dated 2018).

What was measured:
[1] = blood plasma concentration of veliparib against time, immediate release 400 mg twice a day; assay type: in vivo; settings: 10 x 40 mg twice a day, daily dose 800 mg
From the text: The term peak plasma concentration is Cmax in blood plasma observed after administration. The term trough plasma concentration is Cmin in blood plasma observed after administration and just prior to the administration of a subsequent dose in a given dosage regimen. The veliparib plasma concentration can be determined according to the approach described in Mostafa et al., Cancer Chemother Pharmacol (2014) 74: 583-591. Pharmacokinetic terms have the typical meaning as recognized in the art and in case of doubt are to be interpreted according to the European Pharmacopoeia Version 8.8.
The present inventors have realized that the In-vivo plasma concentration profile of veliparib when administered as immediate release dosage forms at 400 mg BID, can be such that the blood plasma fluctuations are quite high. […] Thus, undesireably high peak concentrations are obtained in order to keep the trough concentration above a therapeutic threshold. In contrast, the extended release dosage form of the present invention enables the provision of therapeutically effective trough concentrations at all times without attaining such a high peak concentration. Moreover, when the extended release dosage form of the present invention is administered twice daily, even an overall dose reduction can be obtained while at the same time keeping the through concentration above the therapeutic threshold.
In this experiment 10 tablets containing 40 mg veliparib each prepared in accordance with Comparative example 1 are administered twice a day, 12h apart, to meet a daily dose of 800 mg. A plot displaying the pharmacokinetic behaviour of veliparib is obtained by plotting the blood plasma concentration of veliparib against time (Figure 1). […] The Cmax/Cmin ratio for veliparib is almost 7.

[2] = cited from earlier work

In the case of C[C@]1(c2nc3c(C(N)=O)cccc3[nH]2)CCCN1 [veliparib, 2-((R)-2-Methylpyrrolidin-2-yl)-1H-benzimidazole-4-carboxamide], the Cmax/Cmin ratio [1] is reported as “about 7”, the Cmin [1] is reported as “around 0.5 µg/ml” and the Cmax ([1]; plasma, po, 400 mg) is reported as about 3.5 µg/mL. For the same molecule, the side effects reported ([2]; immediate release tablet at 2 x 400 mg per day) was “anemia, fatigue, nausea, pain and cough” and the elimination half-life ([2]; in vivo) was “about 6 hours”.
